We go through four compounds from patent US20130337453A1, “EXTRACELLULAR MITOCHONDRIA-BASED SCREENING AND TREATMENT” (TUFTS UNIVERSITY, priority 2010, published 2013).

“Also recorded” adds a separate entry of the source.

The subject of assay [1] is LAD2 cells. Description: Mitochondrial translocation in live mast cells by confocal microscopy (MitoTracker/LysoTracker). The class given is cell-based, human. The method, then: LAD2 cells, mast cells derived from a human leukemia patient,were stained with MitoTracker probe (20 nM) for 20 min (middle panels) and LysoTracker DND probe (50 nM) for 30 min (left panels). The cells were then moved to glass bottom culture dishes and observed by TSC SP2 Confocal microscopy. […] The left panels show granules in green. The middle panels represent mitochondria florescence. The right panels represent images merged from the two previous panels. […] Merged images (as described above) of 100 cells randomly selected from each experiment (n=3) are scored by three different operators each time. […] Confocal images from 19 resting cells and 20 degranulating cells (SP 2 μM, 30 min) were randomly selected for analysis. Mitochondria numbers were calculated by ImageJ software using a “mitochondria calculator” plugin.
(§1) FIG. 2 illustrates that SP-stimulated degranulation and pre-stored TNF secretion is blocked by the mitochondrial fission protein Drp1 inhibitor (MDIVI-1) and Drp1-silencing siRNA. LAD2 cells were treated with MDIVI-1 (40 μM) for 15 min at 37° C. FIG. 2A: Mitochondrial morphology was evaluated by Confocal microscopy in normal LAD2 cells with or without stimulation with SP (2 μM, 30 min, 37° C.). Left panels represent granules; middle panels show mitochondria and the right panels are merged from the previous two. The images shown are representative of more than 40 cells studied. […] LAD2 cells were pretreated with MDIVI-1 (40 μM) for 30 min and then stimulated with SP (1 or 2 μM) for 30 min at 37° C. β-hexosaminidase was measured spectrophotometrically and TNF was measured by ELISA.
Very few mitochondria could be found in the cell surface region. It is almost impossible to distinguish individual mitochondria from this pool by confocal microscopy. Since the average pH of mast cell secretory granules is 5.5, LysoTracker (left panels) was used as a dye to stain the granules. After SP (2 μM) stimulation for 30 min at 37° C., mast cells underwent rapid degranulation, during which mitochondrial particles translocate throughout the cell (FIG. 1A). […]

Assay [2] concerns LAD2 cells. Nature of the assay: mtDNA (Mt-7s, Mt-CytB) in supernatant fluid by real-time PCR. The class given is cell-based, human. Particulars: 10 μM SP, 60 minutes. The method, then:
Cell viability (D) was measured by Tulubin-Blue staining.
The amount of these two genes, MT-7s DNA and MT-CytB, which are unique to mtDNA and not present in regular human genomic DNA, increased 200 times in SP-stimulated cells (10 μM SP) compared with that in the control as detected by real-time PCR (FIG. 7A). In contrast, genomic DNA for glyceraldehyde 3-phosphate dehydrogenase (GAPDH) is not detected (Hu, VIC TAMRA, data not shown).
In general terms: Real-time PCR tracks product formation cycle by cycle.

Assay [3] deals with human skin mast cells. Description: Transmission electron microscopy of mitochondria in skin mast cells. The class given is cell-based. The source says:
Mitochondria are shown within white rectangles. White asterisks represent released granular materials. FIG. 5B charts the number of mitochondria visible under electron microscope and FIG. 5C charts the percentage of mitochondria close to the cell surface in each cell as semi-quantitated from high magnification glossy prints by three independent operators. Magnification: 13,800×; (n=3; *p<0.05 compared to control).
Observations using Transmission Electron Microscopy (TEM) (Theoharides, et al. 1998, Endocrinology 139:403-13) indicate translocation of mitochondria particles to sites of exocytosis. Mitochondria of unstimulated human skin mast cells are located around the cell nucleus and appear intact (FIG. 5A, left side). On the contrary, mitochondria of activated mast cells are much smaller than mitochondria from control cells and are located close to secretory granules undergoing exocytosis (FIG. 5A, right side).

A further assay concerns Drp1. Description: Western blot of Drp1 phosphorylation at Ser-616. The class given is cell-based, human. Particulars: SP 2 μM for 30 min, LAD2 mast cells. The source says:
Antibodies against the Ser-616 phosphorylated form of Drp1 was purchased from Cell Signaling based in Massachusetts, USA.
To confirm the involvement of Drp1, the State of phosphorylation of Drp1 at the amino acid serine-616 (Ser-616) was investigated through western blot analysis.

Assay [4] concerns LAD2 cells. Nature of the assay: ATP and Cytochrome C in supernatant fluid of stimulated cells. The class given is cell-based, human. Particulars: SP-stimulated LAD2 cells.
Assay [5] deals with LAD2 cells. Particulars: SP 1 or 2 μM for 30 min (Kulka 2007); cited from earlier work.
For assay [6], the system named is isolated cardiac cell mitochondria. Particulars: SP concentrations higher than 1 μM; cited from earlier work.
The subject of assay [7] is murine mast cell line and isolated murine peritoneal mast cells. Particulars: SP 0.01 to 1 μM; not IL-1, IL-3, IL-4, IL-6 or GM-CSF; cited from earlier work.
The test system of assay [8] is human skin mast cells. Particulars: cited from earlier work.
Assay [9] has as its system LAD2 cells. Nature of the assay: SP-triggered beta-hexosaminidase release (degranulation index). Particulars: MDIVI-1 40 μM pretreatment; SP 1 and 2 μM, vs SP alone. The class given is cell-based, human. The method, then:
as §1
(§2) In order to rule out the possibility that mitochondrial translocation at the cell surface is a bystander effect secondary to cell shape changes during degranulation, the function of Drp1 in mast cell degranulation was investigated. Pretreatment of LAD2 mast cells with the mitochondria] Drp1 inhibitor MDIVI-1 at 40 μM for 15 min at 37° C. (Cassidy-Stone, et al. 2008, Dev. Cell 14:193-204) inhibited mitochondrial translocation (FIG. 2A) despite addition of SP (2 μM for 30 min).

For assay [10], the system named is LAD2 cells. Description: Pre-stored TNF secretion measured by ELISA. The class given is cell-based, human. Particulars: MDIVI-1 40 μM pretreatment; SP 1 and 2 μM, vs SP alone. The method, then:
as §1, §2
Background: ELISA stands for enzyme-linked immunosorbent assay.

Assay [11] has as its system LAD2 cells. Nature of the assay: Mitochondria-induced degranulation (beta-hex release) after P2X7 receptor inhibitor pre-treatment. Particulars: pre-incubation 30 min; beta-hex release 30 min after stimulation. The class given is cell-based, human. The procedure:
FIG. 10 illustrates that mt component activation of LAD2 cells is P2X7-receptor-dependent. LAD2 cells were pre-treated with P2X7 receptor inhibitor for 30 min and then stimulated with mt components. Different concentration of CpG-ODN [ISOLATED fomyl-peptides?] was used to stimulated LAD2 cells (FIG. 10A). LAD2 cells were treated with a P2X7 receptor inhibitor (FIG. 10B). Beta-hex release was measured 30 mins after stimulation. (n=3; *p<0.05, compared to control). FIG. 10C: live LAD2 cells were stained with stained with Fura-2to measure intracellular calcium changes in response to different concentrations of mt components.
We then investigated which components from sonicated mitochondria may activate LAD2 cells. ATP has been reported to stimulated human mast cell degranulation (Cohen et al., 2001, Biochemistry 40:6589-97). Therefore, we tested if inhibition of P2X7 receptors, the primary receptor of ATP, can block the effects of mitochondrial components.

The next assay deals with rat mast cells. Particulars: rat mast cells (Sengoku 2000); cited from earlier work.
For assay [12], the system named is peripheral sensory neurons. Particulars: Inagaki 2010; cited from earlier work.
The test system of a further assay is mouse model of AD. Particulars: mouse model of AD (Inagaki 2010); cited from earlier work.

As to `CSCC[C@H](NC(=O)[C@H](CC(C)C)NC(=O)CNC(=O)[C@H](Cc1ccccc1)NC(=O)[C@H](Cc1ccccc1)NC(=O)[C@H](CCC(N)=O)NC(=O)[C@H](CCC(N)=O)NC(=O)[C@@H]1CCCN1C(=O)[C@H](CCCCN)NC(=O)[C@@H]1CCCN1C(=O)[C@@H](N)CCCNC(=N)N)C(N)=O` [SP, Substance P], the “percentage of LAD2 cells containing mitochondria undergoing translocation” value with LAD2 cells [1] (SP 2 μM, 30 min, 37° C., 20% in control cells) is recorded as “about 55%”. Besides, in the assay on LAD2 cells [1] (after SP stimulation (2 μM, 30 min), ImageJ count), the “number of mitochondria close to the cell surface” value is “significant increase”. The “amount of MT-7s DNA and MT-CytB in supernatant, increase vs control” value with LAD2 cells [2] worked out at 200 times. In addition, in the assay on human skin mast cells [3] (SP-activated skin mast cells vs control), the “number of mitochondria visible under the electron microscope” value is recorded as “increased significantly”. Also, the “percentage of mitochondria translocated close to cell surface” value in the assay on human skin mast cells [3] (SP-activated skin mast cells, control 25%) is listed as 75%. For the same compound, the “increase in percentage of mitochondria translocated close to cell surface” value in the assay on human skin mast cells [3] (SP-activated vs control (25% to 75%)) is 200%. Also, in the assay on Drp1, the “Drp1 phosphorylation at Ser-616” value is recorded as “Drp1 phosphorylation”. In the assay on LAD2 cells [4], the “Cytochrome C (Cyt C) in supernatant fluid” value was “marked increase”. Besides, in the assay on LAD2 cells [4] (dosage-dependent on SP), the “ATP level in supernatant fluid” value was “marked increase”. In addition, the “degranulation of pre-stored TNF” value in the assay on LAD2 cells [5] is listed as “activates degranulation”. The “rate of oxygen consumption” value in assay [6] is recorded as “enhance”. For the same compound, the “gene expression and release of cytokines” value in assay [7] is “induce selective gene expression and release of TNF”. In addition, the “de novo TNF gene expression and release” value with human skin mast cells [8] (SP 0.3-30 μM (Okayama 1998)) is “selectively induced only de novo TNF gene expression and release”. The “histamine and TNF release” value in the assay on human skin mast cells [8] (SP 0.8-100 ηM) was “induced histamine and de novo synthesized TNF release”.
Regarding `COc1cc(-n2c(=S)[nH]c3ccccc3c2=O)c(Cl)cc1Cl` [MDIVI-1], the mitochondrial translocation result with LAD2 cells [1] (MDIVI-1 40 μM pretreatment 15 min, 37° C., SP 2 μM for 30 min) is recorded as “inhibited”. Further, the “SP-triggered β-hexosaminidase release” value with LAD2 cells [9] is “significantly inhibited; also recorded: significant inhibition”. Also, in the assay on LAD2 cells [10], the “secretion of pre-stored TNF” value was “significantly inhibited”.
For the compound `Cl.Clc1cccc(-c2nnnn2Cc2cccnc2)c1Cl.O` [A-438079 hydrochloride hydrate], the “block of mitochondria-induced degranulation” value in the assay on LAD2 cells [11] came out at 40%.
Turning to `C=CC[C@@H]1/C=C(\C)C[C@H](C)C[C@H](OC)[C@H]2O[C@@](O)(C(=O)C(=O)N3CCCC[C@H]3C(=O)O[C@H](/C(C)=C/[C@@H]3CC[C@@H](O)[C@H](OC)C3)[C@H](C)[C@@H](O)CC1=O)[C@H](C)C[C@@H]2OC` [FK506, tacrolimus], the “secretion of IgE-induced histamine” value with rat mast cells is listed as “inhibit”. Also, the “SP content of peripheral sensory neurons” value in assay [12] was “deplete”. Also, the pruritus result with mouse model of AD is “prevent”.
